Values joined by “and” are separate entries in the source; they are usually repeats but may differ in a detail not shown here. Equal entries are not always repeated. Toxic doses and inconclusive results are not listed.
Test system: L1210 leukemia ip in BDF1 mice, survival T/C
Experiment: NCI In Vivo Anticancer Drug Screen. Data for tumor model L1210 Leukemia (intraperitoneal) in B6D2F1 (BDF1) mice
Conditions: endpoint: mean survival time, higher = longer survival
Summary of the method: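 Each compound was tested against a transplantable tumor grown in mice. The endpoint was survival, with treated animals benchmarked against vehicle controls as a simple ratio.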

[1] = dose: 25.0 mg/kg/injection, schedule: Q01DX009 (ip), vehicle: saline with Tween-80
[2] = dose: 50.0 mg/kg/injection, schedule: Q01DX001 (ip), vehicle: saline
[3] = dose: 100.0 mg/kg/injection, schedule: Q01DX001 (ip), vehicle: saline
[4] = dose: 200.0 mg/kg/injection, schedule: Q01DX001 (ip), vehicle: saline
[5] = dose: 400.0 mg/kg/injection, schedule: Q01DX001 (ip), vehicle: saline
[6] = dose: 100.0 mg/kg/injection, schedule: Q04DX003 (ip), vehicle: saline
[7] = dose: 100.0 mg/kg/injection, schedule: Q04DX003 (ip), vehicle: Klucel (hydroxypropylcellulose) (HPC)
[8] = dose: 200.0 mg/kg/injection, schedule: Q04DX003 (ip), vehicle: Klucel (hydroxypropylcellulose) (HPC)
[9] = dose: 400.0 mg/kg/injection, schedule: Q04DX003 (ip), vehicle: Klucel (hydroxypropylcellulose) (HPC)

Compound: CCCCN(C)N=Nc1c(C(N)=O)n[nH]c1C
- T/C (dose: 1.0 mg/kg/injection, schedule: Q03HX008 (ip), vehicle: Klucel (hydroxypropylcellulose) (HPC)): 93 % of control
- T/C (dose: 2.0 mg/kg/injection, schedule: Q03HX008 (ip), vehicle: Klucel (hydroxypropylcellulose) (HPC)): 99 % of control
- T/C (dose: 4.0 mg/kg/injection, schedule: Q03HX008 (ip), vehicle: Klucel (hydroxypropylcellulose) (HPC)): 100 % of control
- T/C (dose: 4.0 mg/kg/injection, schedule: Q03HX016 (ip), vehicle: Klucel (hydroxypropylcellulose) (HPC)): 99 % of control
- T/C (dose: 4.0 mg/kg/injection, schedule: Q03HX024 (ip), vehicle: Klucel (hydroxypropylcellulose) (HPC)): 107 % of control
- T/C (dose: 8.0 mg/kg/injection, schedule: Q01DX009 (ip), vehicle: Klucel (hydroxypropylcellulose) (HPC)): 102 % of control
- T/C (dose: 8.0 mg/kg/injection, schedule: Q03HX008 (ip), vehicle: Klucel (hydroxypropylcellulose) (HPC)): 102 % of control
- T/C (dose: 8.0 mg/kg/injection, schedule: Q03HX016 (ip), vehicle: Klucel (hydroxypropylcellulose) (HPC)): 100 % of control
- T/C (dose: 8.0 mg/kg/injection, schedule: Q03HX024 (ip), vehicle: Klucel (hydroxypropylcellulose) (HPC)): 108 % of control
- T/C (dose: 8.8 mg/kg/injection, schedule: Q01DX007 (ip), vehicle: Klucel (hydroxypropylcellulose) (HPC)): 114 % of control
- T/C (dose: 10.0 mg/kg/injection, schedule: Q01DX009 (ip), vehicle: Klucel (hydroxypropylcellulose) (HPC)): 109 % of control
- T/C (dose: 13.2 mg/kg/injection, schedule: Q01DX007 (ip), vehicle: Klucel (hydroxypropylcellulose) (HPC)): 120 % of control
- T/C (dose: 15.0 mg/kg/injection, schedule: Q01DX009 (ip), vehicle: Klucel (hydroxypropylcellulose) (HPC)): 111 % of control
- T/C (dose: 16.0 mg/kg/injection, schedule: Q01DX009 (ip), vehicle: Klucel (hydroxypropylcellulose) (HPC)): 114 % of control
- T/C (dose: 16.0 mg/kg/injection, schedule: Q03HX016 (ip), vehicle: Klucel (hydroxypropylcellulose) (HPC)): 119 % of control
- T/C (dose: 32.0 mg/kg/injection, schedule: Q01DX001 (ip), vehicle: Klucel (hydroxypropylcellulose) (HPC)): 101 % of control
- T/C (dose: 32.0 mg/kg/injection, schedule: Q03HX024 (ip), vehicle: Klucel (hydroxypropylcellulose) (HPC)): 105 % of control
- T/C (dose: 32.0 mg/kg/injection, schedule: Q04DX003 (ip), vehicle: Klucel (hydroxypropylcellulose) (HPC)): 105 % of control
- T/C (dose: 32.0 mg/kg/injection, schedule: Q08DX002 (ip), vehicle: Klucel (hydroxypropylcellulose) (HPC)): 105 % of control
- T/C (dose: 45.0 mg/kg/injection, schedule: Q01DX009 (ip), vehicle: Klucel (hydroxypropylcellulose) (HPC)): 150 % of control
- T/C (dose: 64.0 mg/kg/injection, schedule: Q01DX001 (ip), vehicle: Klucel (hydroxypropylcellulose) (HPC)): 105 % of control
- T/C (dose: 64.0 mg/kg/injection, schedule: Q04DX003 (ip), vehicle: Klucel (hydroxypropylcellulose) (HPC)): 119 % of control
- T/C (dose: 64.0 mg/kg/injection, schedule: Q08DX002 (ip), vehicle: Klucel (hydroxypropylcellulose) (HPC)): 115 % of control
- T/C (dose: 67.5 mg/kg/injection, schedule: Q01DX009 (ip), vehicle: Klucel (hydroxypropylcellulose) (HPC)): 113 % of control
- T/C (dose: 128.0 mg/kg/injection, schedule: Q01DX001 (ip), vehicle: Klucel (hydroxypropylcellulose) (HPC)): 121 % of control
- T/C (dose: 128.0 mg/kg/injection, schedule: Q08DX002 (ip), vehicle: Klucel (hydroxypropylcellulose) (HPC)): 124 % of control
- T/C (dose: 177.0 mg/kg/injection, schedule: Q01DX001 (ip), vehicle: carboxymethylcellulose (CMC)): 124 % of control

Compound: O=C1C=CC(=O)C2C3CC(C4OC34)C12 (stereo unspecified)
- T/C [1]: 102 % of control
- T/C (dose: 50.0 mg/kg/injection, schedule: Q01DX009 (ip), vehicle: saline with Tween-80): 94 % of control
- T/C (dose: 100.0 mg/kg/injection, schedule: Q01DX009 (ip), vehicle: saline with Tween-80): 100 % of control and 89 % of control

Compound: N#Cc1ccc(CC(=O)c2ccccc2)cc1
- T/C [2]: 101 % of control
- T/C [3]: 97 % of control
- T/C [4]: 101 % of control
- T/C [5]: 95 % of control

Compound: NC(=O)C(N)CO (stereo unspecified)
- T/C (dose: 100.0 mg/kg/injection, schedule: Q04DX002 (ip), vehicle: saline): 96 % of control
- T/C (dose: 200.0 mg/kg/injection, schedule: Q04DX002 (ip), vehicle: saline): 104 % of control
- T/C (dose: 400.0 mg/kg/injection, schedule: Q04DX002 (ip), vehicle: saline): 111 % of control

Compound: N#CC(c1cnc2ccccc2n1)c1cccc2ccccc12 (stereo unspecified)
- T/C [3]: 94 % of control
- T/C [4]: 92 % of control
- T/C [5]: 97 % of control

Compound: CC[C@H]1CN2CCc3cc(OC)c(OC)cc3[C@@H]2C[C@@H]1C[C@@H]1c2cc(OC)c(OC)cc2CCN1N=O
- T/C [6]: 100 % of control

Compound: CCCCCCCCOc1ccc(C2=NN(c3ccccc3)C(=O)C2)cc1
- T/C (dose: 50.0 mg/kg/injection, schedule: Q04DX003 (ip), vehicle: Klucel (hydroxypropylcellulose) (HPC)): 110 % of control
- T/C (dose: 100.0 mg/kg/injection, schedule: Q01DX001 (ip), vehicle: Klucel (hydroxypropylcellulose) (HPC)): 96 % of control
- T/C [7]: 90 % of control
- T/C (dose: 200.0 mg/kg/injection, schedule: Q01DX001 (ip), vehicle: Klucel (hydroxypropylcellulose) (HPC)): 100 % of control
- T/C [8]: 100 % of control
- T/C (dose: 400.0 mg/kg/injection, schedule: Q01DX001 (ip), vehicle: Klucel (hydroxypropylcellulose) (HPC)): 102 % of control

Compound: c1ccc(-c2nc(-c3ccccc3)nc(-c3ccccc3)n2)cc1
- T/C [7]: 98 % of control
- T/C [8]: 94 % of control
- T/C [9]: 94 % of control

Compound: COc1ccc(C(=O)CBr)c(OC)c1
- T/C (dose: 12.5 mg/kg/injection, schedule: Q04DX003 (ip), vehicle: saline): 104 % of control
- T/C [1]: 96 % of control
- T/C (dose: 25.0 mg/kg/injection, schedule: Q04DX003 (ip), vehicle: saline): 97 % of control
- T/C (dose: 50.0 mg/kg/injection, schedule: Q04DX003 (ip), vehicle: saline): 93 % of control
- T/C (dose: 100.0 mg/kg/injection, schedule: Q04DX003 (ip), vehicle: saline with Tween-80): 97 % of control

Compound: CC12CCC(C)(O)C(CC3=C1CCc1ccccc13)C2=O (stereo unspecified)
- T/C [6]: 107 % of control
- T/C (dose: 200.0 mg/kg/injection, schedule: Q04DX003 (ip), vehicle: saline): 104 % of control
- T/C (dose: 400.0 mg/kg/injection, schedule: Q04DX003 (ip), vehicle: saline): 106 % of control

Compound: O=C(OCC(OC(=O)c1ccccc1)C(OC(=O)c1ccccc1)C(OC(=O)c1ccccc1)C(OC(=O)c1ccccc1)c1cnn(-c2ccccc2)n1)c1ccccc1 (stereo unspecified)
- T/C (dose: 100.0 mg/kg/injection, schedule: Q04DX003 (ip), vehicle: acetone): 87 % of control
- T/C (dose: 200.0 mg/kg/injection, schedule: Q04DX003 (ip), vehicle: acetone): 100 % of control
- T/C (dose: 400.0 mg/kg/injection, schedule: Q04DX003 (ip), vehicle: acetone): 90 % of control

Compound: Cc1cccc2cc[nH]c12
- T/C (dose: 50.0 mg/kg/injection, schedule: Q01DX001 (ip), vehicle: other): 115 % of control
- T/C (dose: 100.0 mg/kg/injection, schedule: Q01DX001 (ip), vehicle: other): 87 % of control
- T/C (dose: 200.0 mg/kg/injection, schedule: Q01DX001 (ip), vehicle: other): 102 % of control
- T/C (dose: 400.0 mg/kg/injection, schedule: Q01DX001 (ip), vehicle: other): 96 % of control

Compound: c1ccc([P+]2(Cc3cccc4ccccc34)CCc3[nH]c4ccccc4c3C2)cc1 (stereo unspecified)
- T/C [7]: 96 % of control
- T/C [8]: 98 % of control

Compound: CCOC(=O)C(C)Oc1cc(C)c(Cl)cc1Cl (stereo unspecified)
- T/C (dose: 50.0 mg/kg/injection, schedule: Q01DX001 (ip), vehicle: carboxymethylcellulose (CMC)): 96 % of control
- T/C (dose: 100.0 mg/kg/injection, schedule: Q01DX001 (ip), vehicle: carboxymethylcellulose (CMC)): 96 % of control
- T/C (dose: 200.0 mg/kg/injection, schedule: Q01DX001 (ip), vehicle: carboxymethylcellulose (CMC)): 107 % of control
- T/C (dose: 400.0 mg/kg/injection, schedule: Q01DX001 (ip), vehicle: carboxymethylcellulose (CMC)): 107 % of control

Compound: FC(F)(F)c1cccc(-n2nncc2-c2ccc(Cl)cc2)c1
- T/C (dose: 100.0 mg/kg/injection, schedule: Q04DX002 (ip), vehicle: Klucel (hydroxypropylcellulose) (HPC)): 96 % of control
- T/C (dose: 200.0 mg/kg/injection, schedule: Q04DX002 (ip), vehicle: Klucel (hydroxypropylcellulose) (HPC)): 101 % of control
- T/C (dose: 400.0 mg/kg/injection, schedule: Q04DX002 (ip), vehicle: Klucel (hydroxypropylcellulose) (HPC)): 96 % of control

Compound: CCOC(=O)C(C(=O)OCC)c1ccc(Cl)cc1
- T/C [2]: 101 % of control
- T/C [3]: 101 % of control
- T/C [4]: 101 % of control
- T/C [5]: 106 % of control

Compound: CCCCCCCCCCCCCCOc1ccc2ccccc2c1
- T/C [7]: 94 % of control
- T/C [8]: 96 % of control
- T/C [9]: 91 % of control

From PubChem BioAssay AID248 (DTP/NCI, 2004)
